Test results from ChEMBL document CHEMBL1145076, “Synthesis and activity of new aryl- and heteroaryl-substituted pyrazole inhibitors of the transforming growth factor-beta type I receptor kinase domain” (J Med Chem, 2003).

Assays:
[1] = target: Mitogen-activated protein kinase 14 (Homo sapiens, UniProt Q16539); assay: In vitro inhibitory activity against Mitogen-activated protein kinase p38
[2] = target: T1, TGF-beta receptor type-1 (Homo sapiens, UniProt P36897); assay: In vitro inhibition of transforming growth factor- beta dependent luciferase growth in mouse fibroblasts (NIH 3T3); format: functional; conditions: target entry is the homologue from another species
T1 sequence (P36897 whole entry): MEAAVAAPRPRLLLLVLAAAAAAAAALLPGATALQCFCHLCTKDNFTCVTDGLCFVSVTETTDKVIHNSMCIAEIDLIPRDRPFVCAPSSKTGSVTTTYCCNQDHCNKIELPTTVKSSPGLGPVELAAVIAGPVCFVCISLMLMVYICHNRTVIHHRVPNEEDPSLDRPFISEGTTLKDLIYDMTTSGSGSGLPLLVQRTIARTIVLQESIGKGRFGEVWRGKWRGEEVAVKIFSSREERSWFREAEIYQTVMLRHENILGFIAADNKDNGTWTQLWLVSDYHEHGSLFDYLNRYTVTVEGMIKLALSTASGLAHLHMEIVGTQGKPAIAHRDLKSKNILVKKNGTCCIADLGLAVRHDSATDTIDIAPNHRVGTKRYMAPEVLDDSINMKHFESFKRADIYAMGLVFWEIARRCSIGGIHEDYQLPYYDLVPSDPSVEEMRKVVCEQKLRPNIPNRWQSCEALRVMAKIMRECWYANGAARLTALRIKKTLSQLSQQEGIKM

[3] = target: T1, TGF-beta receptor type-1; assay: In vitro inhibition of transforming growth factor- beta dependent luciferase production in mink lung cells (p3TP Lux); format: functional, cell-based
[4] = target: T1, TGF-beta receptor type-1; assay: In vitro inhibitory activity against human Transforming growth factor beta-1 receptor kinase (TGF-beta RIK)

Sequence of Mitogen-activated protein kinase 14 (Q16539 whole entry): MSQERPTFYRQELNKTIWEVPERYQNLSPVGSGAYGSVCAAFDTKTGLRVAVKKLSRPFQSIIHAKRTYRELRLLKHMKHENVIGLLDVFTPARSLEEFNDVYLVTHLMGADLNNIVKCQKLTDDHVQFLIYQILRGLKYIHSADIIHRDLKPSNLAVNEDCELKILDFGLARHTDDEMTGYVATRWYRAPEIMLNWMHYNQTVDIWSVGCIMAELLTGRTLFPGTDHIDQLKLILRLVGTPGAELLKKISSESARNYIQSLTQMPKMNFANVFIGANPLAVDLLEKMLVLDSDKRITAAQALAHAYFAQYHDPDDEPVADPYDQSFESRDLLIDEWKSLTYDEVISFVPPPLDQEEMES

For `Clc1ccc(-c2n[nH]cc2-c2ccnc3ccccc23)nc1`, the IC50 [1] was 2300 nM, the IC50 [2] was 4670 nM and the IC50 [3] was greater than 10000 nM. For the same compound, the IC50 [4] was 1760 nM.
In the case of `c1ccc(-c2c[nH]nc2-c2ccccn2)cc1`, the IC50 [1] is reported as greater than 20000 nM, the IC50 [2] is reported as 9540 nM and the IC50 [3] is reported as greater than 9000 nM. It also gave an IC50 [4] of 3990 nM.
`Cc1cccc(-c2[nH]ncc2-c2ccc(F)c(F)c2)n1` gave an IC50 [1] greater than 20000 nM, an IC50 [2] of 683 nM and an IC50 [3] of 788 nM. The IC50 [4] was 151 nM.
`Fc1ccc(-c2c[nH]nc2-c2ccccn2)cc1` was tested, and the IC50 [1] was 6800 nM, the IC50 [2] was 2590 nM and the IC50 [3] was 3530 nM. For the same compound, the IC50 [4] was 275 nM.
`Cc1cccc(-c2n[nH]c(C)c2-c2ccnc3ccccc23)n1` was tested, and the IC50 [1] was 250 nM, the IC50 [2] was 148 nM and the IC50 [3] was 24 nM. For the same compound, the IC50 [4] was 82 nM.
Work on `Cc1cccc(-c2n[nH]cc2-c2ccc(F)cc2)n1` yielded an IC50 [1] greater than 20000 nM, an IC50 [2] of 41 nM and an IC50 [3] of 139 nM. The IC50 [4] was 70 nM.
`Brc1cccc(-c2n[nH]cc2-c2ccnc3ccccc23)n1` showed an IC50 [1] of 110 nM, an IC50 [2] of 1.2 nM and an IC50 [3] of 2.9 nM. For the same compound, the IC50 [4] was 31 nM.
`Cc1cccc(-c2n[nH]cc2-c2ccnc3ccccc23)n1` showed an IC50 [1] of 78 nM, an IC50 [2] of 7.1 nM and an IC50 [3] of 2.9 nM. For the same compound, the IC50 [4] was 34 nM.
Work on `Cc1cccc(-c2[nH]ncc2-c2ccc(Cl)cc2)n1` yielded an IC50 [1] greater than 20000 nM, an IC50 [2] of 421 nM and an IC50 [3] of 551 nM. For the same compound, the IC50 [4] was 57 nM.
Compound `c1ccc(-c2n[nH]cc2-c2ccnc3ccccc23)cc1` has an IC50 [1] of 25 nM, an IC50 [2] of 2920 nM and an IC50 [3] of 1200 nM. The IC50 [4] was 382 nM.
In the case of `FC(F)(F)c1cccc(-c2n[nH]cc2-c2ccnc3ccccc23)c1`, the IC50 [1] is reported as 6.8 nM, the IC50 [2] is reported as 524 nM and the IC50 [3] is reported as 355 nM. It also gave an IC50 [4] of 217 nM.
With `c1ccc(-c2c[nH]nc2-c2ccnc3ccccc23)nc1` the IC50 [1] was 7700 nM, the IC50 [2] was 1680 nM and the IC50 [3] was 683 nM. It also gave an IC50 [4] of 150 nM.
`COc1ccc(-c2cn(C)nc2-c2cccc(C)n2)cc1` gave an IC50 [1] of 5400 nM, an IC50 [2] of 61 nM and an IC50 [3] of 47 nM. It also gave an IC50 [4] of 44 nM.
In the case of `Cc1cccc(-c2n[nH]cc2-c2ccc(O)cc2)n1`, the IC50 [1] is reported as 560 nM, the IC50 [2] is reported as 32 nM and the IC50 [3] is reported as 44 nM. For the same compound, the IC50 [4] was 31 nM.
`c1csc(-c2n[nH]cc2-c2ccnc3ccccc23)c1` showed an IC50 [1] of 400 nM, an IC50 [2] of 2810 nM and an IC50 [3] of 1660 nM. The IC50 [4] was 353 nM.
Work on `Cc1cccc(-c2n[nH]cc2-c2ccccc2)n1` yielded an IC50 [1] greater than 20000 nM, an IC50 [2] of 2160 nM and an IC50 [3] of 3370 nM. The IC50 [4] was 543 nM.
With `c1ccc(-c2n[nH]cc2-c2ccnc3ccccc23)nc1` the IC50 [1] was 740 nM.
With `c1ccc(-c2n[nH]c(C3CC3)c2-c2ccnc3ccccc23)nc1` the IC50 [1] was 280 nM, the IC50 [2] was 538 nM and the IC50 [3] was 94 nM. For the same compound, the IC50 [4] was 203 nM.
Work on `Fc1ccc(-c2n[nH]cc2-c2ccnc3ccccc23)nc1` yielded an IC50 [1] of 1300 nM, an IC50 [2] of 76 nM and an IC50 [3] of 94 nM. For the same compound, the IC50 [4] was 91 nM.
With `c1ccc(Cn2cc(-c3ccnc4ccccc34)c(-c3ccccn3)n2)cc1` the IC50 [1] was 510 nM, the IC50 [2] was 1340 nM and the IC50 [3] was 399 nM. The IC50 [4] was 369 nM.
